Each structure is given as a SMILES string.

Assay [1] has as its system Human immunodeficiency virus 1. Description: Antiviral activity against HIV1 RRE-Rev assessed as inhibition of viral replication. Format: functional, organism-based.
Assay [2] deals with N2a. Description: Effect on mouse N2a cells assessed as rescue of amyloid beta toxicity. Format: functional, cell-based.
Assay [3] addresses T1, Amyloid-beta precursor protein (Homo sapiens, UniProt P05067). Description: Binding affinity to amyloid beta 42 (unknown origin) assessed as dissociation constant.
For assay [4], the target named is HIF1A/p300/CREB-binding protein (Homo sapiens, UniProt Q09472+Q16665+Q92793). Description: Binding affinity to hypoxia induced HIF-1 alpha/P300 CH1 domain (323 to 423 residues expressed in Escherichia coli (DE3)/CBP (unknown origin) interaction assessed as dissociation constant.
The test system of assay [5] is MDA-MB-231. Description: Antitumor activity against human MDA-MB-231 cells xenografted in mouse assessed reduction in tumor volume measured for 30 days relative to control. More on the design: scale not given: the % may be the effect or the level left. It is filed as functional. Particulars: time 30 day. On the technique in general: In xenograft studies the graft and the host belong to different species.

Assay [6] has as its target Tumour suppressor p53/oncoprotein Mdm2 (Homo sapiens, UniProt Q00987). Description: Inhibition of HDM2-p53 (unknown origin) protein-protein interaction. Format: protein assay.
For assay [7], the target named is T2, Induced myeloid leukemia cell differentiation protein Mcl-1 (Homo sapiens, UniProt Q07820). Kind of assay: Inhibition of FITC-labeled BH3 peptide binding to MCL1 (unknown origin).
T2 sequence (Q07820 whole entry): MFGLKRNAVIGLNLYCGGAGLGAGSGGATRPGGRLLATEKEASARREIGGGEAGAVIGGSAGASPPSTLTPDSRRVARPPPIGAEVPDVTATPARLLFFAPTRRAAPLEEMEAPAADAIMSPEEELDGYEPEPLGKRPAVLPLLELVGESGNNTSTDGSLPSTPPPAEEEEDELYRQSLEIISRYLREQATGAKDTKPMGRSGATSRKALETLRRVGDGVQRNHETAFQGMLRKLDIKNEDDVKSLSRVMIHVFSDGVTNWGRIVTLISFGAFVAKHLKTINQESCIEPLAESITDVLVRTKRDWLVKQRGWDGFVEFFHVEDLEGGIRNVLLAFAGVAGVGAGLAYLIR
The target of assay [8] is T2, Induced myeloid leukemia cell differentiation protein Mcl-1. Description: Displacement of fluorescent-labeled BH3 peptide from recombinant MCL1 (unknown origin) by fluorescence polarization-based competitive binding assay.
Assay [9] concerns N2a. Kind of assay: Cytotoxicity against mouse N2a cells. It is filed as functional, cell-based.
Assay [10] in a line: Binding affinity to RNA S protein (unknown origin) assessed as dissociation constant by ITC method. More on the design: species or system Homo sapiens. In general terms: ITC needs no label: the signal is the heat of the interaction.
For assay [11], the target named is Myc proto-oncogene protein (Homo sapiens, UniProt P01106). Kind of assay: Binding affinity to c-MYC (unknown origin) assessed as dissociation constant.
Chain of Myc proto-oncogene protein (P01106 whole entry, the tested form may be a part): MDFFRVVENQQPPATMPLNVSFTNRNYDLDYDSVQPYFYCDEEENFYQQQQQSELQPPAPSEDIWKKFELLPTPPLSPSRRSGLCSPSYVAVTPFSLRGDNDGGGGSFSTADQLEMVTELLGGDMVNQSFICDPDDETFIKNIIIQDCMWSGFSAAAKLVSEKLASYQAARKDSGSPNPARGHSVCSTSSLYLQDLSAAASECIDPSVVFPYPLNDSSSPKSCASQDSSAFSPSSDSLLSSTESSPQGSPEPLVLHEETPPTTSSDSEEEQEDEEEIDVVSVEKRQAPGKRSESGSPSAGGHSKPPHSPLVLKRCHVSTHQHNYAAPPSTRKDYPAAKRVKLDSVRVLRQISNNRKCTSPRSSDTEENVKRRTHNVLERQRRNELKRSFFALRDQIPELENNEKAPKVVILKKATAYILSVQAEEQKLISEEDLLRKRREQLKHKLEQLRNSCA
In assay [12] the target is T2, Induced myeloid leukemia cell differentiation protein Mcl-1. Description: Binding affinity to fluorescent-labeled BH3 peptide from GST tagged MCL1 (172 to 320 residues) (unknown origin) expressed in Escherichia coli BL21 (DE3) incubated for 15 mins by fluorescence polarization-based competitive binding assay. (In general: Polarisation of emitted light reports the rotation of a fluorescent probe.)

The target in assay [13] is Trypanothione reductase (Leishmania infantum, UniProt A4HSF7). Kind of assay: Inhibition of Leishmania infantum TryR oxidoreductase activity expressed in Escherichia coli BL21 (DE3) using TS2 and NADPH as substrate by incubated for 10 mins followed by substrate addition by DTNB-reagent based spectrophotometric method.
Chain of Trypanothione reductase (A4HSF7 whole entry): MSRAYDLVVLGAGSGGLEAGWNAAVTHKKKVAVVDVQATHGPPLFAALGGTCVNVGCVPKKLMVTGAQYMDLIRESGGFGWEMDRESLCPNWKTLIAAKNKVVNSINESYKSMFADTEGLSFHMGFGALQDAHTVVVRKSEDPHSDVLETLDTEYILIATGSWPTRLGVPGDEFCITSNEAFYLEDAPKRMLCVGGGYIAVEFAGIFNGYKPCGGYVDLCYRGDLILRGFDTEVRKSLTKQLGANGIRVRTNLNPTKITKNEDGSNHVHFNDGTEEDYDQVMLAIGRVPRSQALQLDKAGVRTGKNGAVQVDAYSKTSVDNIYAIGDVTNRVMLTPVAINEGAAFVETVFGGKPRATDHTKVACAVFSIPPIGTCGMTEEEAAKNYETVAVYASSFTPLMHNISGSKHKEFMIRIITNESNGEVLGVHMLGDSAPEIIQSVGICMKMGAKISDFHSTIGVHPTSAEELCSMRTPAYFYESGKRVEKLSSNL
Assay [14] is described as follows: Inhibition of Mcl-1/NoxaB (unknown origin) protein-protein interaction. The arrangement: species or system Homo sapiens.
In assay [15] the test system is Human immunodeficiency virus 1. Description: Antiviral activity against HIV-1 pseudotyped virus expressing HXB-2 proteins infected in human TZM-bl cells assessed as inhibition of viral entry by luciferase based analysis. The settings on record: Human immunodeficiency virus 1, TZM-bl. Format: functional, organism-based.
The nature of assay [16]: Binding affinity to TAR RNA assessed as dissociation constant.
The subject of assay [17] is SJSA-1. Kind of assay: cells. The settings on record: Homo sapiens.
Assay [18] has as its target T1, Amyloid-beta precursor protein. Description: Binding affinity to amyloid beta 40 (unknown origin) by ITC method.
The target in assay [19] is T3, Islet amyloid polypeptide (Homo sapiens) (UniProt P10997).
T3 sequence (whole entry): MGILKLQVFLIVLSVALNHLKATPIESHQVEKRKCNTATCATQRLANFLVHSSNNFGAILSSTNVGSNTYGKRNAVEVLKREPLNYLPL
Description: Disruption of beta-fibrillation of IAPP (unknown origin) assessed as half life of protein.

Assay [20] concerns the target Histone acetyltransferase p300/Hypoxia-inducible factor 1-alpha (Homo sapiens, UniProt Q09472+Q16665). Description: Inhibition of hypoxia-induced HIF1alpha/P300 interaction (unknown origin) incubated for 30 mins for fluorescence anisotropy competition assay. It is filed as protein-complex assay.
Assay [21] deals with T2, Induced myeloid leukemia cell differentiation protein Mcl-1. Kind of assay: Displacement of fluorescein tagged Bak BH3 peptide from MCL-1 (172 to 327 residues) (unknown origin) by fluorescence polarization competition assay.

Chain of Tumour suppressor p53/oncoprotein Mdm2 (P04637 whole entry): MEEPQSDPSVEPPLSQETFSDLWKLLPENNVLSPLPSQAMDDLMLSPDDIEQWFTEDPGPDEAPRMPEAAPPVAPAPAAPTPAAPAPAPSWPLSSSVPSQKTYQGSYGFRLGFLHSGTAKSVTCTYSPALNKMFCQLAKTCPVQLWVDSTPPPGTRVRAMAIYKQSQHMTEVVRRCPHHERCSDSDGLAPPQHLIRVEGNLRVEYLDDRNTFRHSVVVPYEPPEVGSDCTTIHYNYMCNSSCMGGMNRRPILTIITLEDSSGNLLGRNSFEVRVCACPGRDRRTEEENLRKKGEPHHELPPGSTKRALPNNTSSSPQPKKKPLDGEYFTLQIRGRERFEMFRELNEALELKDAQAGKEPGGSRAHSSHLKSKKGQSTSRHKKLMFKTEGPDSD
Chain of Tumour suppressor p53/oncoprotein Mdm2 (Q00987 whole entry): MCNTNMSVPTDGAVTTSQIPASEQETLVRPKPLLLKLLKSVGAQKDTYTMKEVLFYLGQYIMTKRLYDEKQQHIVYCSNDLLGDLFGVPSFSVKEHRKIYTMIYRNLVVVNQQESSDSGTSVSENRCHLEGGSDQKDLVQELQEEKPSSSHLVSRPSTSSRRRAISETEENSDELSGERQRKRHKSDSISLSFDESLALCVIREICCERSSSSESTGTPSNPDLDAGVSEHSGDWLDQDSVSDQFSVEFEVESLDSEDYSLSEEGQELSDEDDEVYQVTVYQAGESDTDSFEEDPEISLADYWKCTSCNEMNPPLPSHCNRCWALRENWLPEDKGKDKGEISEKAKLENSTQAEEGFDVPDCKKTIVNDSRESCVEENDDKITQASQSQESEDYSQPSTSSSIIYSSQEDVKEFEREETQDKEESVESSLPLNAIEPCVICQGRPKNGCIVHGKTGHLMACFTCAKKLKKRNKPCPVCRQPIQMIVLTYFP
T1 sequence (P05067 whole entry, the tested form may be a part): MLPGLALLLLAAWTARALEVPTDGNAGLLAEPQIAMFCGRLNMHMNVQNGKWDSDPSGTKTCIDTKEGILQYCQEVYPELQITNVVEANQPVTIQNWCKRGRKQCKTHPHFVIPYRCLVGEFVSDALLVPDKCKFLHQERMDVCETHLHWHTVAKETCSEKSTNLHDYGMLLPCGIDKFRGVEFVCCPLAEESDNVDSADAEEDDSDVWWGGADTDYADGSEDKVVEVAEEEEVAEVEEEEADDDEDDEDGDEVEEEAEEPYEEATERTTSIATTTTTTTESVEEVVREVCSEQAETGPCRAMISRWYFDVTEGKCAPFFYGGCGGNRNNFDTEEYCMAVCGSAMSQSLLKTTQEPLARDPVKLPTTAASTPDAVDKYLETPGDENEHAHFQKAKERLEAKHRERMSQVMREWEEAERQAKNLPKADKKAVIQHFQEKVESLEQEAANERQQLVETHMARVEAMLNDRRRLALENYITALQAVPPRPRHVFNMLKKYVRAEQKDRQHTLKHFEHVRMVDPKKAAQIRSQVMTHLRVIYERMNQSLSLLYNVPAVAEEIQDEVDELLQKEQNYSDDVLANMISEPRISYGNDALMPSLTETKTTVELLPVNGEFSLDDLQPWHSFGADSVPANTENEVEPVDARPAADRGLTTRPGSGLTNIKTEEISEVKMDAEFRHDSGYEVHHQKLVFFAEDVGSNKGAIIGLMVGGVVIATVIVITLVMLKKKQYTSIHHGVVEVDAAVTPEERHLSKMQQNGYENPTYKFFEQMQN

Take `Cc1cc(-c2cc(CCN)ccc2CCN)c(C)cc1-c1cc(CCN)ccc1CCN`: the IC50 (in general, the concentration needed to halve the response being measured) in assay [1] was determined as 47 µM.

As to `CCC(C)Oc1cc(C(=O)Nc2cccc3c(OCC(=O)O)cc(C(=O)OC)nc23)nc2c(NC(=O)c3cc(OCC(=O)O)c4cccc(NC(=O)c5cc(OC(C)CC)c6cccc([N+](=O)[O-])c6n5)c4n3)cccc12` (stereo not drawn), in [2], the IC50 is 3 µM. Besides, the Kd – broadly, the equilibrium constant for the complex coming apart – in assay [3] is 2.2 µM. Consider `CC(C)C[C@@H]1NCCN([C@@H](CC(C)C)C(=O)N2CCN([C@@H](CCC(N)=O)C(N)=O)C(=O)[C@@H]2C)C1=O`, for which, in [4], the Kd was 5.3 µM. For the same compound, the Activity in [5] came out at 50%.

For the compound `CC(C)C[C@H](NC(=O)c1ccc(NC(=O)[C@@H](N)Cc2ccccc2)c(OCCc2c[nH]c3ccccc23)c1)C(=O)O`, the IC50 in assay [6] came to 15 µM.

In the case of `COc1cc(CCN)c(-c2cc(C)c(-c3cc(CCN)c(OC)cc3CCN)cc2C)cc1CCN`, the IC50 in assay [1] came to 14 µM.

For the compound `CC(C)(C)OC(=O)N(Cc1ccccc1)c1nc(NCC(=O)O)c2ncn(Cc3cccc4ccccc34)c2n1`, the IC50 in assay [7] came to 72 µM. Turning to `Oc1ccc(CCNc2nc3nc(n2)N2CCN(CC2Cc2ccccc2)c2nc(nc(Nc4ccc(Oc5ccccc5)cc4)n2)NCCOCCOCCOCCOCCN3)cc1` (stereo not drawn), the Ki (in general, the equilibrium dissociation constant of an inhibitor or competing ligand from its target) in assay [8] turned out to be 2.6 µM. For the compound `CC(C)COc1nc(C(=O)Nc2ccc(C(=O)Nc3ccc(C(=O)Nc4ccc(C(=O)O)nc4OCC(=O)O)nc3OCC(=O)O)nc2OCc2ccccc2)ccc1[N+](=O)[O-]`, in assay [9], the IC50 is 2.5 µM.

As to `CC(C)Oc1cc(NC(=O)[C@H](Cc2ccccc2)NC(=O)c2ccc(N)c(OCc3ccc(Cl)cc3)c2)ccc1C(=O)NCC(=O)O`, the Kd in assay [10] turned out to be 1.85 µM. As to `CC(C)COc1cc(C(=O)O)ccc1NC(=O)c1ccc([N+](=O)[O-])c(OCc2ccc3ccccc3c2)c1`, the Kd in [11] came out at 10 µM. In assay [12], `O=C(O)CCCNc1nc(NCCc2ccc(O)cc2)nc(N2CCN(c3nc(NCCC(=O)O)nc(Nc4ccc(Oc5ccccc5)cc4)n3)CC2Cc2ccccc2)n1` (stereo not drawn) registered a Ki of 0.53 µM. In assay [13], `NCCNCc1cncn1-c1ccc(-c2nc(CCc3ccc(-c4ccccc4)cc3)cs2)c(OCCN2CNCC2=O)c1` had an IC50 of 8.6 µM.

Consider `CC(C)Oc1cc(NC(=O)[C@H](Cc2ccccc2)NC(=O)c2ccc(N)c(OCc3ccccc3)c2)ccc1C(=O)NCC(=O)O`, for which the IC50 is 11.9 µM in assay [6] and above 100 µM in assay [14]. As to `CCC(C)CN(C(=O)c1ccc(N(Cc2ccc3ccccc3c2)C(=O)c2ccc(NCC(C)C)cc2)cc1)c1ccc(C(=O)N[C@H](C(=O)O)[C@H](C)CC)cc1` (stereo partly drawn), the IC50 in [6] turned out to be 9.3 µM; in assay [14], 24 µM.

Take `NCCCOc1nc(C(=O)O)ccc1NC(=O)c1ccc(NC(=O)c2ccc([N+](=O)[O-])c(OCCCN)n2)c(OCCCN)n1`: the IC50 in assay [15] was 25 µM. The Kd in assay [16] came to 4.1 µM. In assay [17], `CC(C)[C@@H](CS(=O)(=O)C(C)C)N1C(=O)[C@@](C)(CC(=O)O)C[C@H](c2cccc(Cl)c2)[C@H]1c1ccc(Cl)cc1` [NAVTEMADLIN] returned a 50% inhibitory concentration (IC50) of 0.025 µM. In assay [18], `NCCCOc1nc(C(=O)O)ccc1NC(=O)c1ccc(NC(=O)c2ccc([N+](=O)[O-])c(OCc3ccccc3)n2)c(OCCCN)n1` returned a Kd of 0.7 µM. This compound also displayed an IC50 in assay [9] of 1.4 µM. On to `Oc1ccc(CCNc2nc3nc(n2)N2CCN(CC2Cc2ccccc2)c2nc(nc(Nc4ccc(Oc5ccccc5)cc4)n2)NCCOCCOCCOCCN3)cc1` (stereo not drawn), for which the inhibitory constant (Ki) in [8] is 2.6 µM. On to `NCCNCc1cncn1-c1ccc(-c2nc(CCc3ccc4ccccc4c3)cs2)c(OCCN2CNCC2=O)c1`, for which the IC50 in assay [13] was determined as 5.1 µM.

Regarding `CCCc1c(NC(=O)Nc2sccc2CCC(=O)O)ccc2sc(N(CCC(=O)O)C(=O)OCC)nc12`, in assay [19], the T1/2 was found to be 23.1 h. Regarding `CC(C)COc1cc(C(=O)Nc2ccc(C(=O)O)cc2OC(C)C)ccc1NC(=O)c1ccc([N+](=O)[O-])c(OCC(C)C)c1`, in assay [20], the IC50 was 9.2 µM. In assay [21], `Cc1cc(-c2ccc(C(=O)O)c(OCc3ccccc3)c2)cc(C)c1Cl` had a Ki of 2.9 µM.

These data come from ChEMBL document CHEMBL5241059, “Evolution in non-peptide α-helix mimetics on the road to effective protein-protein interaction modulators” (Eur J Med Chem, 2021).
